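Interpolation was linear, between the two tested concentrations surrounding the appropriate level; five concentrations were tested over 48 hours in 96-well plates. Here, GI50 denotes the concentration required for 50% inhibition of growth.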 Activity calls are given as the source filed them. Rule as the data show it: active = GI50 up to about 1.1 µM and inactive = higher.
Legend:
Test in all cases: DTP human tumour cell line panel, 48 h
SW-620 = system: SW-620
SK-MEL-28 = system: SK-MEL-28
TK-10 = system: TK-10
MOLT-4 = system: MOLT-4
SNB-78 = system: SNB-78
DMS-114 = system: DMS-114
UO-31 = system: UO-31
OVCAR-8 = system: OVCAR-8
SNB-19 = system: SNB-19
A549 = system: A549
COLO 205 = system: COLO 205
LOX IMVI = system: LOX IMVI
HOP-62 = system: HOP-62
SNB-75 = system: SNB-75
SK-OV-3 = system: SK-OV-3
CAKI-1 = system: CAKI-1
KM-20L2 = system: KM-20L2
K562 = system: K562
HT-29 = system: HT-29
RXF 393 = system: RXF 393
Malme-3M = system: Malme-3M
A498 = system: A498
SN12C = system: SN12C
U-251 = system: U-251
HOP-92 = system: HOP-92
EKVX = system: EKVX
XF498 = system: XF498
M14 = system: M14
HL-60 = system: HL-60
DLD-1 = system: DLD-1
HCT-116 = system: HCT-116
SF-539 = system: SF-539
SF-268 = system: SF-268
UACC-257 = system: UACC-257
HOP-18 = system: HOP-18
IGROV-1 = system: IGROV-1
CCRF-CEM = system: CCRF-CEM
SR = system: SR
DMS-273 = system: DMS-273
M19-MEL = system: M19-MEL
HCC 2998 = system: HCC 2998
NCI-H460 = system: NCI-H460
ACHN = system: ACHN
OVCAR-3 = system: OVCAR-3
LXFL 529 = system: LXFL 529
SF-295 = system: SF-295
NCI-H23 = system: NCI-H23
KM12 = system: KM12
HCT-15 = system: HCT-15
RXF 631 = system: RXF 631
UACC-62 = system: UACC-62
RPMI-8226 = system: RPMI-8226
OVCAR-5 = system: OVCAR-5
NCI-H226 = system: NCI-H226
SK-MEL-5 = system: SK-MEL-5
OVCAR-4 = system: OVCAR-4
786-0 = system: 786-0
SK-MEL-2 = system: SK-MEL-2
NCI-H522 = system: NCI-H522

`Oc1cc(O)c2c(-c3c(O)c(-c4ccc(O)c(O)c4)[o+]c4cc(O)cc(O)c34)c(O)c(-c3ccc(O)c(O)c3)[o+]c2c1` was tested, and the GI50 (SW-620) was 48.4 µM (inactive), the GI50 (SK-MEL-28) was 91.2 µM (inactive) and the GI50 (TK-10) was 61.5 µM (inactive). For the same compound, the GI50 (MOLT-4) was 30.5 µM (inactive), the GI50 (SNB-78) was 51.5 µM (inactive) and the GI50 (DMS-114) was 32.7 µM (inactive). The GI50 (UO-31) was 40.4 µM (inactive), the GI50 (OVCAR-8) was 36.6 µM (inactive) and the GI50 (SNB-19) was 36 µM (inactive). For the same compound, the GI50 (A549) was 48.2 µM (inactive), the GI50 (COLO 205) was 42.5 µM (inactive) and the GI50 (LOX IMVI) was 32.4 µM (inactive). For the same compound, the GI50 (HOP-62) was 38.9 µM (inactive), the GI50 (SNB-75) was 24 µM (inactive) and the GI50 (SK-OV-3) was 34.1 µM (inactive). The GI50 (CAKI-1) was 36.9 µM (inactive), the GI50 (KM-20L2) was 46 µM (inactive) and the GI50 (K562) was > 10 µM (inactive). For the same compound, the GI50 (HT-29) was 37.6 µM (inactive), the GI50 (RXF 393) was 35.9 µM (inactive) and the GI50 (Malme-3M) was 46 µM (inactive). The GI50 (A498) was 38.5 µM (inactive), the GI50 (SN12C) was 39.9 µM (inactive) and the GI50 (U-251) was 30.9 µM (inactive). For the same compound, the GI50 (HOP-92) was 36.7 µM (inactive), the GI50 (EKVX) was 28.7 µM (inactive) and the GI50 (XF498) was 33.7 µM (inactive). The GI50 (M14) was 55.5 µM (inactive), the GI50 (HL-60) was > 10 µM (inactive) and the GI50 (DLD-1) was 87.7 µM (inactive). The GI50 (HCT-116) was 48.8 µM (inactive), the GI50 (SF-539) was 25.6 µM (inactive) and the GI50 (SF-268) was 40.3 µM (inactive). The GI50 (UACC-257) was > 100 µM (inactive), the GI50 (HOP-18) was 8 µM (inactive) and the GI50 (IGROV-1) was 48 µM (inactive). For the same compound, the GI50 (CCRF-CEM) was > 10 µM (inactive), the GI50 (SR) was 25.9 µM (inactive) and the GI50 (DMS-273) was 39.6 µM (inactive). For the same compound, the GI50 (M19-MEL) was 45.3 µM (inactive), the GI50 (HCC 2998) was 39.2 µM (inactive) and the GI50 (NCI-H460) was 21.5 µM (inactive). For the same compound, the GI50 (ACHN) was 21.7 µM (inactive), the GI50 (OVCAR-3) was 20.7 µM (inactive) and the GI50 (LXFL 529) was 55.5 µM (inactive). The GI50 (SF-295) was 41.8 µM (inactive), the GI50 (NCI-H23) was 40.3 µM (inactive) and the GI50 (KM12) was 35.1 µM (inactive). For the same compound, the GI50 (HCT-15) was 41.8 µM, the GI50 (RXF 631) was 30.9 µM (inactive) and the GI50 (UACC-62) was 22.6 µM (inactive). The GI50 (RPMI-8226) was 63 µM (inactive), the GI50 (OVCAR-5) was > 100 µM (inactive) and the GI50 (NCI-H226) was 20.1 µM (inactive). The GI50 (SK-MEL-5) was > 100 µM (inactive), the GI50 (OVCAR-4) was 27.5 µM (inactive) and the GI50 (786-0) was 35.5 µM (inactive).
For `Cc1ccc(/N=N/c2c(C)nn(-c3ccccc3)c2C)c(Br)c1`, the GI50 (SW-620) was 70.8 µM (inactive), the GI50 (SK-MEL-28) was > 100 µM (inactive) and the GI50 (TK-10) was > 100 µM (inactive). For the same compound, the GI50 (MOLT-4) was 64 µM (inactive), the GI50 (SNB-78) was > 100 µM (inactive) and the GI50 (DMS-114) was > 100 µM (inactive). The GI50 (OVCAR-8) was > 100 µM (inactive), the GI50 (SNB-19) was > 100 µM (inactive) and the GI50 (A549) was > 100 µM (inactive). The GI50 (COLO 205) was > 100 µM (inactive), the GI50 (LOX IMVI) was 53 µM (inactive) and the GI50 (HOP-62) was > 100 µM (inactive). For the same compound, the GI50 (SNB-75) was > 100 µM (inactive), the GI50 (SK-OV-3) was > 100 µM (inactive) and the GI50 (SK-MEL-2) was > 100 µM (inactive). The GI50 (CAKI-1) was > 100 µM (inactive), the GI50 (KM-20L2) was > 100 µM (inactive) and the GI50 (K562) was 27.3 µM (inactive). For the same compound, the GI50 (HT-29) was 76.9 µM (inactive), the GI50 (RXF 393) was 54 µM (inactive) and the GI50 (Malme-3M) was > 100 µM (inactive). For the same compound, the GI50 (A498) was > 100 µM (inactive), the GI50 (SN12C) was > 100 µM (inactive) and the GI50 (U-251) was 60.8 µM (inactive). For the same compound, the GI50 (HOP-92) was > 100 µM (inactive), the GI50 (EKVX) was > 100 µM (inactive) and the GI50 (XF498) was > 100 µM (inactive). For the same compound, the GI50 (M14) was > 100 µM (inactive), the GI50 (HL-60) was 6.84 µM (inactive) and the GI50 (DLD-1) was 65.6 µM (inactive). For the same compound, the GI50 (HCT-116) was 41.3 µM (inactive), the GI50 (SF-539) was > 100 µM (inactive) and the GI50 (SF-268) was > 100 µM (inactive). The GI50 (UACC-257) was 89.7 µM (inactive), the GI50 (HOP-18) was > 100 µM (inactive) and the GI50 (IGROV-1) was > 100 µM (inactive). For the same compound, the GI50 (CCRF-CEM) was 27 µM (inactive), the GI50 (DMS-273) was 51.3 µM (inactive) and the GI50 (M19-MEL) was > 100 µM (inactive). For the same compound, the GI50 (HCC 2998) was > 100 µM (inactive), the GI50 (NCI-H460) was 62.8 µM (inactive) and the GI50 (ACHN) was > 100 µM (inactive). The GI50 (OVCAR-3) was > 100 µM (inactive), the GI50 (LXFL 529) was 95.3 µM (inactive) and the GI50 (SF-295) was > 100 µM (inactive). For the same compound, the GI50 (NCI-H23) was > 100 µM (inactive), the GI50 (KM12) was 95.5 µM (inactive) and the GI50 (HCT-15) was 36 µM. For the same compound, the GI50 (RXF 631) was > 100 µM (inactive), the GI50 (UACC-62) was 89.9 µM (inactive) and the GI50 (RPMI-8226) was 36 µM (inactive). For the same compound, the GI50 (OVCAR-5) was > 100 µM (inactive), the GI50 (NCI-H226) was > 100 µM (inactive) and the GI50 (SK-MEL-5) was 66.1 µM (inactive). The GI50 (OVCAR-4) was > 100 µM (inactive) and the GI50 (786-0) was > 100 µM (inactive).
`NNC(=O)/C(NC(=O)c1ccccc1)=C(\N)c1cccc([N+](=O)[O-])c1` was tested, and the GI50 (SW-620) was > 100 µM (inactive), the GI50 (SK-MEL-28) was > 100 µM (inactive) and the GI50 (TK-10) was > 100 µM (inactive). The GI50 (MOLT-4) was 94.2 µM (inactive), the GI50 (SNB-78) was > 100 µM (inactive) and the GI50 (DMS-114) was > 100 µM (inactive). The GI50 (UO-31) was > 100 µM (inactive), the GI50 (OVCAR-8) was > 100 µM (inactive) and the GI50 (SNB-19) was > 100 µM (inactive). The GI50 (A549) was > 100 µM (inactive), the GI50 (COLO 205) was > 100 µM (inactive) and the GI50 (LOX IMVI) was > 100 µM (inactive). The GI50 (HOP-62) was > 100 µM (inactive), the GI50 (SNB-75) was > 100 µM (inactive) and the GI50 (SK-OV-3) was > 100 µM (inactive). The GI50 (SK-MEL-2) was > 100 µM (inactive), the GI50 (CAKI-1) was > 100 µM (inactive) and the GI50 (K562) was > 100 µM (inactive). For the same compound, the GI50 (HT-29) was > 100 µM (inactive), the GI50 (RXF 393) was > 100 µM (inactive) and the GI50 (Malme-3M) was > 100 µM (inactive). The GI50 (A498) was > 100 µM (inactive), the GI50 (SN12C) was > 100 µM (inactive) and the GI50 (U-251) was > 100 µM (inactive). For the same compound, the GI50 (HOP-92) was > 100 µM (inactive), the GI50 (NCI-H522) was > 100 µM (inactive) and the GI50 (EKVX) was > 100 µM (inactive). For the same compound, the GI50 (XF498) was > 100 µM (inactive), the GI50 (M14) was > 100 µM (inactive) and the GI50 (HL-60) was > 100 µM (inactive). For the same compound, the GI50 (DLD-1) was > 100 µM (inactive), the GI50 (HCT-116) was > 100 µM (inactive) and the GI50 (SF-539) was > 100 µM (inactive). For the same compound, the GI50 (SF-268) was > 100 µM (inactive), the GI50 (UACC-257) was > 100 µM (inactive) and the GI50 (HOP-18) was > 100 µM (inactive). For the same compound, the GI50 (IGROV-1) was > 100 µM (inactive), the GI50 (CCRF-CEM) was > 100 µM (inactive) and the GI50 (SR) was > 100 µM (inactive). The GI50 (DMS-273) was > 100 µM (inactive), the GI50 (M19-MEL) was > 100 µM (inactive) and the GI50 (HCC 2998) was > 100 µM (inactive). The GI50 (NCI-H460) was > 100 µM (inactive), the GI50 (ACHN) was > 100 µM (inactive) and the GI50 (OVCAR-3) was > 100 µM (inactive). The GI50 (LXFL 529) was > 100 µM (inactive), the GI50 (SF-295) was > 100 µM (inactive) and the GI50 (NCI-H23) was > 100 µM (inactive). For the same compound, the GI50 (KM12) was > 100 µM (inactive), the GI50 (HCT-15) was over 100 µM and the GI50 (RXF 631) was > 100 µM (inactive). The GI50 (UACC-62) was > 100 µM (inactive), the GI50 (RPMI-8226) was > 100 µM (inactive) and the GI50 (OVCAR-5) was > 100 µM (inactive). For the same compound, the GI50 (NCI-H226) was > 100 µM (inactive), the GI50 (SK-MEL-5) was > 100 µM (inactive) and the GI50 (OVCAR-4) was > 100 µM (inactive). The GI50 (786-0) was > 100 µM (inactive).

— ChEMBL document CHEMBL1201862, “PubChem BioAssay data set” (2004)
